From US6090542A, “Process for inhibiting the transcription of genes” (Boehringer Ingelheim International GmbH, priority 1993, dated 2000)

Key:
IkB-α [1] = test: Western blot analysis of IkB-α in HeLa cells after TNF-α stimulation; assay type: cell-based, human; conditions: HeLa cells
Protocol: (§1) The 7OZ/3 cells were treated with 50 E/ml IL-1β (Boehringer Mannheim) or with 15 μg/ml LPS (Sigma). Human HeLa cells were cultivated in DMEM, supplemented with 10%FCS and 1% L-glutamine and treated with 200 E/ml human recombinant TFN-α (genzyme).
As protease inhibitors Z-Ile-Glu(Ot-Bu)-Ala-leucinal (NBIG) and the chemically related substance Z-Leu-leucinal (Cbz-L-L) were used (Z standing for benzyloxycarbonyl).
In the figure the slower migrating form of IkB-α is identified with an asterisk.

NF-KB [2] = test: EMSA of NF-KB activation in HeLa cells after TNF-α stimulation; assay type: cell-based, human; conditions: HeLa cells, TNF-α stimulation, Cbz-L-L
Protocol: as §1, with “The methods used in this example for the culture of the 7OZ/3 cells and the production of the cell extracts were implemented as stated in example 1. The” for “The”
The test arrangement in this example corresponded to that of example 4; HeLa cells were cultivated as stated in example 2 and TNF-α was used as inductor for the NF-KB activation. As protease inhibitors Z-Ile-Glu(Ot-Bu)-Ala-leucinal (NBIG) and the chemically related substance Z-Leu-leucinal (Cbz-L-L) were used (Z standing for benzyloxycarbonyl).
a) The electrophoretic mobility shift assays were carried out by using a ^32 P labelled oligonucleotide with a NF-KB binding site on whole cell extracts from HeLa cells. […] The ID50 value for NBIG was approx. 50 μM (FIG. 7B).

IL-8 = IL-8 in the cell supernatant of stimulated HeLa cells (ELISA); assay type: cell-based, human; conditions: 120', stimulus alone (TNF 200 E/ml or PMA 50 ng/ml)
Protocol: (§2) The principle of the test arrangement corresponded to that of the previous examples.
(§3) The cells were stimulated--with or without 30 minutes of pre-treatment with 100 μmol NBIG--with TNF (200 E/ml) or with PMA (50 ng/ml) and the concentration of IL-6 or IL-8 was measured in the cell supernatant at various intervals using ELISA (British Biotechnology Products Ltd.).

IL-6 = IL-6 in the cell supernatant of stimulated HeLa cells (ELISA); assay type: cell-based, human; conditions: stimulus alone (TNF 200 E/ml or PMA 50 ng/ml)
Protocol: as §2, §3

nuclear-factor oct-1 = test: EMSA of constitutive DNA binding activity in 7OZ/3 cells; assay type: cell-based, mouse; conditions: 7OZ/3 cells treated with TPCK
Protocol: 7OZ/3 cells (ATCC No. TIB 158) were cultivated in RPMI-1640 medium (Gibco BRL), supplemented by 10% FCS (Gibco BRL) and 50 μM 2-mercaptoethanol. 2 ml aliquots with approx. 2-3×10^6 of suspended cells was treated with 50 ng/ml PMA (Sigma) for various periods. The treatment was interrupted by immediate centrifugation (5 s in an Eppendorf Microfuge) and cooling on ice. The cell pellets were lysed with 60 μl of a high-salt extraction buffer, containing the non-ionic detergent nonidet P-40 (Baeuerle and Baltimore, 1988b). The supernatant of a 15 minute centrifugation at 13.000 rpm in an Eppendorf Microfuge was analysed by Western blotting and EMSA (electrophoretic mobility shift assay). For SDS-PAGE and Western blotting 30 μl aliquots of the extracts were mixed with 15 μl SDS sample buffer (Laemmli, 1970), boiled and subjected to a SDS-PAGE on 12.5% polyacrylamide minigels (Biorad). The proteins were transferred by using a so-called semi-dry blotting device (Biorad; 1 h at 15V/2.5 mA/cm2) from the gels onto IMMOBILON-P-filter (0.45 μm; Millipore). The efficiency of the blot was checked by protein staining of the filters with Ponceau S (Serva). The filters were blocked overnight in a Tris-buffered saline solution, containing 0,1% (v/v) TWEEN-20 (TBST), 5% low-fat milk powder (Nestle) and 1% BSA. […]

NF-KB [3] = test: EMSA of NF-KB DNA binding activity in total cell extracts of stimulated 7OZ/3 cells; assay type: cell-based, mouse
Protocol: 7OZ/3 cells (ATCC No. TIB 158) were cultivated in RPMI-1640 medium (Gibco BRL), supplemented by 10% FCS (Gibco BRL) and 50 μM 2-mercaptoethanol. 2 ml aliquots with approx. 2-3×10^6 of suspended cells was treated with 50 ng/ml PMA (Sigma) for various periods. The treatment was interrupted by immediate centrifugation (5 s in an Eppendorf Microfuge) and cooling on ice. The cell pellets were lysed with 60 μl of a high-salt extraction buffer, containing the non-ionic detergent nonidet P-40 (Baeuerle and Baltimore, 1988b). The supernatant of a 15 minute centrifugation at 13.000 rpm in an Eppendorf Microfuge was analysed by Western blotting and EMSA (electrophoretic mobility shift assay). For SDS-PAGE and Western blotting 30 μl aliquots of the extracts were mixed with 15 μl SDS sample buffer (Laemmli, 1970), boiled and subjected to a SDS-PAGE on 12.5% polyacrylamide minigels (Biorad). The proteins were transferred by using a so-called semi-dry blotting device (Biorad; 1 h at 15V/2.5 mA/cm2) from the gels onto IMMOBILON-P-filter (0.45 μm; Millipore). The efficiency of the blot was checked by protein staining of the filters with Ponceau S (Serva). The filters were blocked overnight in a Tris-buffered saline solution, containing 0,1% (v/v) TWEEN-20 (TBST), 5% low-fat milk powder (Nestle) and 1% BSA. The filter was then incubated for one hour at ambient temperature with anti IkB-α IgG in a dialysed eluate of the IkB-α affinity column and diluted by 1:100 in the blocking buffer. After washing for 30 minutes in TBST the filter was incubated in a 1:4000 solution of goat-anti-rabbit IgG/horseradish-peroxidase conjugate (Biorad) in blocking buffer. After washing for 30 minutes in TBST the filter was treated with ECL detecting reagent (Amersham) and exposed (Kodak XR film, less than 1 minute). For EMSA 2 μl aliquots of the extracts were added to a binding mixture, resulting in a final concentration of […], […], pH 7.9, […] dithiothreitol, […] phenylmethylsulfonylfluoride (PMSF), 0.2% NONIDET P-40, 5% FICOLL, 20 μg BSA, 3 μg Poly (dl-dC) and 10.000 cpm (Cerenkov counting method) of a ^32 P marked double-stranded KB-oligonucleotide probe (Gibco BRL). The specificity of the protein DNA complex was confirmed by competition experiments and supershifting with a polyclonal antibody, recognising the C-terminal 100 amino acids of Rel-A (p65). After 20 minutes of incubation on ice the samples were subjected to electrophoresis on native 4% polyacrylamide gels, run in 0.5× TBE. The dried gels were exposed (Kodak XR film, -70° C., overnight).
Cell cultures, extract production, SDS-PAGE and Western blotting were carried out according to example 1. The cells were […] in 25 μm TPCK or TLCK (both from Sigma), and pre-treated in dimethylsulfoxide (DMSO). The control cultures received an equivalent amount of DMSO.
The results of the experiments are shown in FIG. 4: A: Effect of TPCK on the induction by PMA. The cells were treated without (left panel) or in presence of TPCK with PMA for the stipulated periods. The cell extracts were tested for the DNA binding activity of NF-KB using EMSA (top panel) and for the IkB-α protein quantity using Western blotting (bottom panel). The position of the NF-KB-DNA complex in a section of a fluorogram of a native gel is shown by a filled arrowhead. […] B: Effect of TPCK on the activation of NF-KB by IL-1β (I), LPS (L) and PMA (P) in 7OZ/3 cells; in control cells (Co). The cells were treated with TPCK for 10 minutes before stimulation (lanes 6-8) or for an additional 10 minutes after stimulation (lanes 10-12; 30 minutes with IL-1β and PMA or 60 minutes with LPS). The total cell extracts of control cells (lanes 1-4) and cells treated with TPCK (lanes 5-12) were tested for the DNA binding activity of NF-KB using EMSA; a section of a fluorogram of a native gel is shown. […] C: Effect of TLCK on the activation of NF-KB by PMA. […]

IkB-α [4] = test: Western blotting of IkB-α in extracts of 7OZ/3 cells; assay type: cell-based, mouse
NF-KB [5] = test: Activation of NF-KB with TNF-α in various other cell lines; assay type: cell-based

CC(C)CC(C=O)NC(=O)C(CC(C)C)NC(=O)OCc1ccccc1 [Cbz-L-L, Z-Leu-leucinal]
inhibition of IkB-α degradation and accumulation of modified IkB-α (IkB-α [1]; TNF-α, 50 μm): does not show these effects
prevention of NF-KB-DNA complex formation (NF-KB [2]): did not occur

TNF-α
IL-8 (IL-8): 52 pg/mL
decay of IkB-α (IkB-α [1]): induced a decay
time after stimulation at which most of the IkB-α had decayed (IkB-α [1]): ≤ 5 min
IL-6 (IL-6; 15'): 875 pg/mL
IL-6 (IL-6; 120'): 6750 pg/mL

Cc1ccc(S(=O)(=O)N[C@@H](Cc2ccccc2)C(=O)CCl)cc1 [TPCK, p-tosyl-L-phenylalaninechloromethylketone]
constitutive DNA binding activity, including nuclear-factor oct-1 (nuclear-factor oct-1): not significantly influenced
ID50 (NF-KB-DNA binding activity) (NF-KB [3]; 7OZ/3 cells, PMA treatment): approx. 8 μM
activation of NF-KB by IL-IB and LPS (NF-KB [3]; 7OZ/3 cells, inhibitor before stimulation): effective in preventing
suppression of NF-KB-DNA binding activity (NF-KB [3]; 7OZ/3 cells, one-hour treatment with 25 μM, subsequent PMA treatment): completely suppress
NF-KB activation, inhibitor given after stimulation (NF-KB [3]; 7OZ/3 cells, treatment after stimulation with PMA, IL-1 or LPS): hardly impaired
degradation of IkB-α in PMA treated cells (Western blot) (IkB-α [4]; 7OZ/3 cells, TPCK, PMA): completely prevent
activation of NF-KB with TNF-α (NF-KB [5]): effective in preventing

Cc1ccc(S(=O)(=O)N[C@@H](CCCCN)C(=O)CCl)cc1 [TLCK, p-tosyl-L-lysinchloromethylketone]
inhibition of the NF-KB activation (NF-KB [3]; 7OZ/3 cells, 100 μM TLCK): partial inhibition
prevention of the activation of NF-KB (NF-KB [3]; 7Z/3 cells, 25 μM, PMA): unable to prevent

CCCCCCCCCCCCCC(=O)O[C@@H]1[C@@H](C)[C@@]2(O)[C@@H](C=C(CO)C[C@]3(O)C(=O)C(C)=C[C@@H]23)[C@@H]2C(C)(C)[C@]12OC(C)=O [PMA, phorbol-12-myristyl-13-acetate]
IL-8 (IL-8): 410 pg/mL
time after stimulation at which most of the IkB-α had decayed (IkB-α [4]; 7OZ/3 cells): ≤ 5 min
increase of degradation of IkB-α (IkB-α [4]; 7OZ/3 cells, PMA versus cycloheximide alone): approx. 90 fold
IkB-α band (Western blot) (IkB-α [4]; 7OZ/3 cells, between 2 and 5 minutes after addition): disappeared almost completely
half-life of IkB-α (IkB-α [4]; cycloheximide pre-treated 7OZ/3 cells, 2 to 5 minutes after the PMA stimulation): 1.5 min
IL-6 (IL-6; 15'): 750 pg/mL
IL-6 (IL-6; 120'): 12813 pg/mL
